Laboratory results from patent US11753407B2, “Compounds for treating spinal muscular atrophy” (PTC Therapeutics, Inc., priority 2012, dated 2023).

Legend:
[1] = tested on: Smn protein in SMA patient fibroblast cells (GM03813); experiment: Smn protein assay in cultured cells (SMN HTRF); assay type: cell-based, human; settings: SMA patient fibroblast cells, 48 hours; for EC1.5x for Smn protein expression: 7-point concentration curve, SMN HTRF, concentration producing 1.5 times Smn protein vs DMSO vehicle control; for maximum fold (Fold) increase of Smn protein: 7-point concentration data, fold relative to vehicle control
How it was run: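 SMA patient fibroblasts (5,000 cells/well, DMEM-10% FBS) were treated for 48 h at 37 °C with a 7-point, 3.16-fold dilution series in triplicate. RIPA lysates were probed by HTRF (anti-SMN d2/kryptate, overnight, room temperature), reading 665/620 nm. EC1.5× is the concentration giving 1.5-fold Smn over DMSO vehicle.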

[2] = tested on: SMN2 minigene mRNA (SMN2-A minigene) in HEK293H cells; experiment: SMN2 minigene mRNA splicing RT-qPCR assay in cultured cells; assay type: cell-based, human; settings: Homo sapiens, HEK293-H; concentration increasing full length SMN2 mRNA 1.5-fold relative to vehicle-treated cells; HEK293H cells with SMN2-A minigene, 24 hours, 7-point concentration data; read-out: EC1.5x for production of full length SMN2 mRNA
How it was run: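 HEK293H cells stably carrying the SMN2-A minigene were treated for 24 h at 37 °C with a 7-point, 3.16-fold dilution series of compound. Multiplex RT-qPCR measured exon 7-containing minigene FL mRNA against GAPDH, expressed relative to vehicle by modified ΔΔCt; the EC1.5× is the concentration giving a 1.5-fold increase.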

Row | melting point [°C] | Compound | EC1.5x for Smn protein expression [1] | maximum fold (Fold) increase of Smn protein [1] | EC (1.5-fold increase) [2] [µM]
1 | 185 to 188 | CCc1nc(C)cn2nc(-c3cc(=O)n4cc(N5CCN[C@H](C)C5)ccc4n3)cc12 [Compound 661, 2-(4-ethyl-6-methylpyrazolo[1,5-a]pyrazin-2-yl)-7-[(3R)-3-methylpiperazin-1-yl]-4H-pyrido[1,2-a]pyrimidin-4-one] | **** (an EC1.5x≤0.3 μM is indicated by four stars (****)) | ***** (a fold increase >1.65 is indicated by five stars (*****)) | < 0.1
2 | 186 to 188 | Cc1cn2nc(-c3cc(=O)n4cc(C5CCN(CCCF)CC5)ccc4n3)cc2c(C)n1 [Compound 663, 2-(4,6-dimethylpyrazolo[1,5-a]pyrazin-2-yl)-7-[1-(3-fluoropropyl)piperidin-4-yl]-4H-pyrido[1,2-a]pyrimidin-4-one] | **** (an EC1.5x≤0.3 μM is indicated by four stars (****)) | ***** (a fold increase >1.65 is indicated by five stars (*****)) | < 0.1
3 | 245 to 247 | CCc1nc(C)cn2nc(-c3cc(=O)n4cc(N5CCN(CCF)CC5)ccc4n3)cc12 [Compound 664, 2-(4-ethyl-6-methylpyrazolo[1,5-a]pyrazin-2-yl)-7-[4-(2-fluoroethyl)piperazin-1-yl]-4H-pyrido[1,2-a]pyrimidin-4-one] | *** (an EC1.5× between >0.3 μM and ≤1 μM is indicated by three stars (***)) | ***** (a fold increase >1.65 is indicated by five stars (*****)) | 0.3 to 1
4 | 240 to 242 | CCc1nc(C)cn2nc(-c3cc(=O)n4cc(N5CCN(CCCF)CC5)ccc4n3)cc12 [Compound 665, 2-(4-ethyl-6-methylpyrazolo[1,5-a]pyrazin-2-yl)-7-[4-(3-fluoropropyl)piperazin-1-yl]-4H-pyrido[1,2-a]pyrimidin-4-one] | **** (an EC1.5x≤0.3 μM is indicated by four stars (****)) | ***** (a fold increase >1.65 is indicated by five stars (*****)) | 0.1 to 0.3
5 | 255 to 257 | CCc1nc(C)cn2nc(-c3cc(=O)n4cc(N5CCN(CCF)[C@H](C)C5)ccc4n3)cc12 [Compound 666, 2-(4-ethyl-6-methylpyrazolo[1,5-a]pyrazin-2-yl)-7-[(3R)-4-(2-fluoroethyl)-3-methylpiperazin-1-yl]-4H-pyrido[1,2-a]pyrimidin-4-one] | *** (an EC1.5× between >0.3 μM and ≤1 μM is indicated by three stars (***)) | ***** (a fold increase >1.65 is indicated by five stars (*****)) | 0.1 to 0.3
6 | 244 to 246 | CCc1nc(C)cn2nc(-c3cc(=O)n4cc(N5CCN(CCCF)[C@H](C)C5)ccc4n3)cc12 [Compound 667, 2-(4-ethyl-6-methylpyrazolo[1,5-a]pyrazin-2-yl)-7-[(3R)-4-(3-fluoropropyl)-3-methylpiperazin-1-yl]-4H-pyrido[1,2-a]pyrimidin-4-one] | **** (an EC1.5x≤0.3 μM is indicated by four stars (****)) | ***** (a fold increase >1.65 is indicated by five stars (*****)) | < 0.1
7 | 206 to 208 | CCc1nc(C)cn2nc(-c3cc(=O)n4cc(C5CCN(CCF)CC5)ccc4n3)cc12 [Compound 668, 2-(4-ethyl-6-methylpyrazolo[1,5-a]pyrazin-2-yl)-7-[1-(2-fluoroethyl)piperidin-4-yl]-4H-pyrido[1,2-a]pyrimidin-4-one] | **** (an EC1.5x≤0.3 μM is indicated by four stars (****)) | ***** (a fold increase >1.65 is indicated by five stars (*****)) | < 0.1
8 | 216 to 218 | CCc1nc(C)cn2nc(-c3cc(=O)n4cc(C5CCN(CCCF)CC5)ccc4n3)cc12 [Compound 669, 2-(4-ethyl-6-methylpyrazolo[1,5-a]pyrazin-2-yl)-7-[1-(3-fluoropropyl)piperidin-4-yl]-4H-pyrido[1,2-a]pyrimidin-4-one] | **** (an EC1.5x≤0.3 μM is indicated by four stars (****)) | ***** (a fold increase >1.65 is indicated by five stars (*****)) | < 0.1
9 | 247 to 255 | Cc1cn2nc(-c3cc(=O)n4cc(C5CCNCC5)cc(C)c4n3)cc2c(C)n1 [Compound 671, 2-(4,6-dimethylpyrazolo[1,5-a]pyrazin-2-yl)-9-methyl-7-(piperidin-4-yl)-4H-pyrido[1,2-a]pyrimidin-4-one] | **** (an EC1.5x≤0.3 μM is indicated by four stars (****)) | ***** (a fold increase >1.65 is indicated by five stars (*****)) | < 0.1
10 | 273 to 281 | Cc1cn2nc(-c3cc(=O)n4cc(N5CCN(CCO)[C@H](C)C5)cc(C)c4n3)cc2c(C)n1 [Compound 673, 2-(4,6-dimethylpyrazolo[1,5-a]pyrazin-2-yl)-7-[(3R)-4-(2-hydroxyethyl)-3-methylpiperazin-1-yl]-9-methyl-4H-pyrido[1,2-a]pyrimidin-4-one] | **** (an EC1.5x≤0.3 μM is indicated by four stars (****)) | **** (a fold increase between >1.5 and ≤1.65 is indicated by four stars (****)) | < 0.1
11 | 262 to 266 | Cc1cn2cc(-c3cc(=O)n4cc(N5CCN(C)CC5)ccc4n3)cc(CO)c2n1 [Compound 677, 2-[8-(hydroxymethyl)-2-methylimidazo[1,2-a]pyridin-6-yl]-7-(4-methylpiperazin-1-yl)-4H-pyrido[1,2-a]pyrimidin-4-one] | *** (an EC1.5× between >0.3 μM and ≤1 μM is indicated by three stars (***)) | ***** (a fold increase >1.65 is indicated by five stars (*****)) | < 0.1
12 | 258 to 262 | CCN1CCN(c2ccc3nc(-c4cc(CO)c5nc(C)cn5c4)cc(=O)n3c2)CC1 [Compound 678, 7-(4-ethylpiperazin-1-yl)-2-[8-(hydroxymethyl)-2-methylimidazo[1,2-a]pyridin-6-yl]-4H-pyrido[1,2-a]pyrimidin-4-one] | **** (an EC1.5x≤0.3 μM is indicated by four stars (****)) | ***** (a fold increase >1.65 is indicated by five stars (*****)) | < 0.1
13 | 228 to 230 | CCc1nc(C)cn2nc(-c3cc(=O)n4cc(C5CCN(C(C)C)CC5)ccc4n3)cc12 [Compound 679, 2-(4-ethyl-6-methylpyrazolo[1,5-a]pyrazin-2-yl)-7-[1-(propan-2-yl)piperidin-4-yl]-4H-pyrido[1,2-a]pyrimidin-4-one] | **** (an EC1.5x≤0.3 μM is indicated by four stars (****)) | ***** (a fold increase >1.65 is indicated by five stars (*****)) | < 0.1
14 | 196 to 199 | CCc1nc(C)cn2nc(-c3cc(=O)n4cc(C5CCN(C6CC6)CC5)ccc4n3)cc12 [Compound 680, 7-(1-cyclopropylpiperidin-4-yl)-2-(4-ethyl-6-methylpyrazolo[1,5-a]pyrazin-2-yl)-4H-pyrido[1,2-a]pyrimidin-4-one] | **** (an EC1.5x≤0.3 μM is indicated by four stars (****)) | ***** (a fold increase >1.65 is indicated by five stars (*****)) | < 0.1
15 | 227 to 229 | CCc1nc(C)cn2nc(-c3cc(=O)n4cc(C5CCN(C6CCC6)CC5)ccc4n3)cc12 [Compound 681, 7-(1-cyclobutylpiperidin-4-yl)-2-(4-ethyl-6-methylpyrazolo[1,5-a]pyrazin-2-yl)-4H-pyrido[1,2-a]pyrimidin-4-one] | **** (an EC1.5x≤0.3 μM is indicated by four stars (****)) | ***** (a fold increase >1.65 is indicated by five stars (*****)) | < 0.1
16 | 190 to 192 | CCc1nc(C)cn2nc(-c3cc(=O)n4cc(C5CCN(C6COC6)CC5)ccc4n3)cc12 [Compound 682, 2-(4-ethyl-6-methylpyrazolo[1,5-a]pyrazin-2-yl)-7-[1-(oxetan-3-yl)piperidin-4-yl]-4H-pyrido[1,2-a]pyrimidin-4-one] | ** (an EC1.5× between >1 μM and ≤3 μM is indicated by two stars (**)) | ***** (a fold increase >1.65 is indicated by five stars (*****)) | 0.3 to 1
17 | 226 to 229 | Cc1cn2nc(-c3cc(=O)n4cc(N5CCNCC5)ccc4n3)cc2c(C2CC2)n1 [Compound 683, 2-(4-cyclopropyl-6-methylpyrazolo[1,5-a]pyrazin-2-yl)-7-(piperazin-1-yl)-4H-pyrido[1,2-a]pyrimidin-4-one] | *** (an EC1.5× between >0.3 μM and ≤1 μM is indicated by three stars (***)) | ***** (a fold increase >1.65 is indicated by five stars (*****)) | < 0.1
